Data: publication PMC3372625 (Journal of Controlled Release, 2012)

Legend:
[1] = tested on: H9C2 cells; experiment: Reactive oxygen species; type: cell-based; details: various concentrations of CoCl2; figure 2b
[2] = tested on: H9C2 cells; experiment: Cell viability; type: cell-based; details: in the presence of CoCl2; figure 2c
[3] = tested on: cells; details: cited from earlier work

## [Cl][Co][Cl] [CoCl2, cobalt chloride]
[1]
  generation of ROS: dependent on the concentration of CoCl2 up to 25 μmol
[2]
  CoCl2 toxicity (cell viability): no artifact caused by CoCl2 toxicity

## Branched poly(ethylenimine) [PEI]
[3]
  cytotoxicity: less than 10%
